Measurements from paper PMC9295122, “Sialic Acid Derivatives Inhibit SiaT Transporters and Delay Bacterial Growth” (ACS Chemical Biology, 2022).
Read-outs that look alike come from different tables or passages of the source.

Columns and labels:
SaSiaT [1] = target: T1, SaSiaT (Staphylococcus aureus, UniProt A0A0H2XJ46); test: Isothermal titration calorimetry, SaSiaT; assay type: binding
Protocol: The binding thermodynamic analysis performed via isothermal titration calorimetry (ITC) provides insights into dissociation constants (Kd) and the binding driving forces of compounds 3a, 3e, and 3f with PmSiaT and SaSiaT.
Isothermal titration calorimetric experiments were performed on an ITC200 instrument (MicroCal, Northampton, USA) at 25 °C using standard instrument settings (reference power of 6 μcal s^–1, stirring speed of 750 rpm, feedback mode high, and filter period of 2 s). Protein solutions were dialyzed against ITC buffer (50 mM Tris–HCl, 150 mM NaCl, with 0.0174% (w/v) DDM, pH 8.0 at 5 °C) prior to the experiments, and all the samples were prepared using the dialysate buffer to minimize dilution effects. Protein concentrations were determined spectrophotometrically with the specific absorbance at 280 nm employing an extinction coefficient of 76,445 mol^–1 cm^–1 for PmSiaT and 75,750 M^–1 cm^–1 for SaSiaT. […] In a typical experiment, a 0.3–1.0 mM inhibitor solution was titrated to a solution containing 30–50 μM of PmSiaT or 13–20 μM of SaSiaT to ensure >90% saturation. Baseline correction, peak integration, and nonlinear regression analysis of experimental data were performed using the NITPIC (version 1.2.2.)[41] and SEDPHAT (version 12.1b)[42] software packages. The stoichiometry parameter was manually constrained to a value of 1. Experiments were performed in triplicate and the 68% confidence intervals from global fitting of three experiments were calculated as an estimate of the experimental error. All the titration curves can be found in Figures S10–S15.

[2] = Plasma-protein binding by RED, mouse; assay type: in vitro ADME; details: pH 7.2, read-out: Plasma-protein binding by RED (% unbound compound, average n=2)
Protocol: The assay was run in a deep well plate containing RED inserts with semipermeable dialysis membranes. The reaction was started by adding the compounds to a blank plasma in a 5 μM concentration. Opposite to the blank plasma was a compartment containing isotonic sodium–phosphate buffer (pH 7.2) separated from the plasma by the membrane. The plate was equilibrated in a water bath at 37 °C for 4 h. Samples from both the plasma and the buffer side were matrix compensated before protein precipitation. The samples were centrifuged, and the supernatants were diluted and analyzed by LC–MS/MS to determine the % unbound compound. Two incubations per compound per species.

[3] = Metabolic stability in human liver microsomes; assay type: in vitro ADME; details: for microsomal CLint at 1 µM: human liver microsomes, read-out: intrinsic clearance Clint; for Metabolic stability in human microsomes, Exp. 1 / Metabolic stability in human microsomes, Exp. 2: intrinsic clearance, 1 µM compound
Protocol: (§1) The assay was run in a 96-deep well format and solutions were prepared containing microsomes in phosphate buffer. The microsomes employed were from humans, rats, and mice. The reaction was initiated by addition of NADPH after preincubation at 37 °C with test compounds. The reaction was stopped by the addition of acetonitrile (ACN) at six time points (0, 5, 10, 15, 25, and 45 min), the samples were centrifuged, and the supernatant was diluted to determine the loss of compound by LC–MS/MS. Two incubations per compound per species. For further details regarding working concentrations, volumes, and final concentrations at incubation, refer to the supplementary section (Table S6). […]
Metabolic Metabolic Metabolic stability in stability in stability in Plasma-protein human mouse rat In vitro plasma stability binding by RED
Assay/compo microsome microsome microsome (% compound remaining after (% unbound und s s s 23 h) compound, (µL/min/m (µL/min/m (µL/min/m average n=2) g protein) g protein) g protein)
Exp. Exp. Exp. Exp. Exp. Exp. Hum Mou Ra Do Mini Hum Mou Ra […]
Conc. of W orki ng Vol ume i n Fi nal conc. At sol uti on assay incubation
577 m g / m L520 µ L0. […]

Solubility screen = assay type: physicochemical; details: aqueous buffer, kinetic from dmso stock; 100 mM phosphate buffer, pH 7.4, 1% DMSO; read-out: solubility (solubility screening)
Protocol: The compounds were dissolved in 10 mM DMSO solutions. The solubility was assessed by dilution in 0.1 M phosphate buffer pH 7.4 to a concentration of 100 μM.

SaSiaT [4] = target: T1, SaSiaT; test: nanoDSF thermal shift assay, SaSiaT; assay type: binding; details: for Average 1 / Average 2 / Average 3 / Replicate 1 / Replicate 2 / Replicate 3: SaSiaT Tm; for Average 1: average of experiment 1; for Average 2: average of experiment 2; for Average 3: average of experiment 3; for Replicate 1: experiment 1, second capillary; for Replicate 1 / Replicate 2 / Replicate 3 / Tm 1 / Tm2 / Tm 3 / Overall average (Tm): 1.25 mM; for Replicate 2: experiment 2, second capillary; for Replicate 3: experiment 3, second capillary; for Tm 1 / Tm2 / Tm 3 / Overall average (Tm): SaSiaT; for Tm 1: experiment 1, first capillary; for Tm2: experiment 2, first capillary; for Tm 3: experiment 3, first capillary; for Overall average (Tm): three experiments
In short: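 Protein at 2 μM in PBS with 0.0174% (w/v) DDM and ligand at 1.25 mM were heated from 25 to 95 °C at 1 °C/min, with 330/350 nm fluorescence ratio and its first derivative giving Tm. ΔTm is relative to the Neu5Ac Tm, averaged over 3 experiments with 2 capillaries each.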

[5] = Metabolic stability in mouse liver microsomes; assay type: in vitro ADME; details: for Metabolic stability in mouse microsomes, Exp. 1 / Metabolic stability in mouse microsomes, Exp. 2: intrinsic clearance, 1 µM compound; for microsomal CLint at 1 µM: mouse liver microsomes, read-out: intrinsic clearance Clint
Protocol: as §1
Conc. of W orki ng Vol ume i n Fi nal conc. At
sol uti on assay incubation
577 m g / m L520 µ L0. 5 m g / m L […]
NADPH i n buffe r 7. 5 m M 80 µ L 1 m M

[6] = ITC, 25 °C, read-out: SaSiaT Kd

T1 sequence (A0A0H2XJ46 entry or part of it): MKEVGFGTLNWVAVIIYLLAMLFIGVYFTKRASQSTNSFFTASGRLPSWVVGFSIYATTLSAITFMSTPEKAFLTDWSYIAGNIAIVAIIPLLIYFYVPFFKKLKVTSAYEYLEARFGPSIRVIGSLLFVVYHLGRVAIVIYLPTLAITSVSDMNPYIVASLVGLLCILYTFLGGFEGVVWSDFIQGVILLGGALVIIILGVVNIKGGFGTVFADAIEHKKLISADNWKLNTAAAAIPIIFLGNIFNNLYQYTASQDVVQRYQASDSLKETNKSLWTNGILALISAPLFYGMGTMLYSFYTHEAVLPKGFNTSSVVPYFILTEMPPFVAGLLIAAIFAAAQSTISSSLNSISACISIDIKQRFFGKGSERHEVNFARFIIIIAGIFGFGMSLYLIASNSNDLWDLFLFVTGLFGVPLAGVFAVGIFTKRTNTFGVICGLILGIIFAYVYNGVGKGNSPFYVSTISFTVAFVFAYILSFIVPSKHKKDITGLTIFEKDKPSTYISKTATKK

Row | Structure (SMILES) | SaSiaT -TΔS° (SaSiaT [1]; ITC) | SaSiaT ΔG° (SaSiaT [1]; ITC) | SaSiaT ΔH° (SaSiaT [1]; ITC) | Kd (SaSiaT [1]; [6]) | fraction unbound at 4 h, 5 μM [2] | microsomal CLint at 1 µM [3] | Metabolic stability in human microsomes, Exp. 1 [3] | Metabolic stability in human microsomes, Exp. 2 [3] | solubility (Solubility screen) | Average 1 (SaSiaT [4]) | Average 2 (SaSiaT [4]) | Average 3 (SaSiaT [4]) | Replicate 1 (SaSiaT [4]) | Replicate 2 (SaSiaT [4]) | Replicate 3 (SaSiaT [4]) | Tm 1 (SaSiaT [4]) | Tm2 (SaSiaT [4]) | Tm 3 (SaSiaT [4]) | Overall average (Tm) (SaSiaT [4]) | Metabolic stability in mouse microsomes, Exp. 1 [5] | also measured
1 | CC(=O)NC1C(OCc2cc(Br)cc(Br)c2)CC(O)(C(=O)O)OC1C(O)C(O)CO (stereo not shown) [Compound 3f] | -13.1 kcal/mol | -6.55 kcal/mol | 6.57 kcal/mol | 15.7 ± 7.3 µM | 0.23 | < 10 µL/min/mg | < 10 µL/min/mg protein | < 10 µL/min/mg protein | > 95 µM | 53.1 °C | 54.0 °C | 54.4 °C | 53.1 °C | 54.0 °C | 54.3 °C | 53.1 °C | 54.0 °C | 54.4 °C | 53.8 °C | < 10 µL/min/mg protein | ΔTm (SaSiaT [4]; nanoDSF, relative to Neu5Ac, ligand 1.25 mM, <−5 °C nonbinder): 2.6 ± 0.7 °C; Metabolic stability in mouse microsomes, Exp. 2 [5]: < 10 µL/min/mg protein; microsomal CLint at 1 µM [5]: < 10 µL/min/mg
2 | CC(=O)NC1C(OCc2ccccc2)CC(O)(C(=O)O)OC1C(O)C(O)CO (stereo not shown) [Compound 3a] | -16 kcal/mol | -6.91 kcal/mol | 9.08 kcal/mol | 8.8 ± 2.7 µM | 0.63 | < 10 µL/min/mg | < 10 µL/min/mg protein | < 10 µL/min/mg protein | > 95 µM | 56.2 °C | 55.7 °C | 56.3 °C | 56.1 °C | 55.8 °C | 56.1 °C | 56.2 °C | 55.7 °C | 56.6 °C | 56.1 °C | < 10 µL/min/mg protein | Metabolic stability in mouse microsomes, Exp. 2 [5]: < 10 µL/min/mg protein; microsomal CLint at 1 µM [5]: < 10 µL/min/mg
3 | CC(=O)N[C@H]1[C@H]([C@H](O)[C@H](O)CO)OC(O)(C(=O)O)C[C@@H]1O (stereo partly shown) [Neu5Ac, 5-N-acetyl neuraminic acid, reference compound] | -14.7 kcal/mol | -5.31 kcal/mol | 9.37 kcal/mol |  |  |  |  |  |  | 51.3 °C | 51.1 °C | 51.3 °C | 51.4 °C | 51.4 °C | 51.0 °C | 51.3 °C | 50.9 °C | 51.6 °C | 51.2 °C |  | Kd (SaSiaT [1]): 130 ± 35 µM
4 | CC(=O)NC1C(OCc2cc(F)cc(F)c2)CC(O)(C(=O)O)OC1C(O)C(O)CO (stereo not shown) [Compound 3e] | -16.5 kcal/mol | -7.36 kcal/mol | 9.15 kcal/mol | 4.1 ± 2.1 µM | 0.63 | < 10 µL/min/mg | < 10 µL/min/mg protein | < 10 µL/min/mg protein | > 95 µM | 57.3 °C | 56.7 °C | 57.1 °C | 57.3 °C | 56.7 °C | 56.9 °C | 57.3 °C | 56.6 °C | 57.2 °C | 57.0 °C | < 10 µL/min/mg protein | affinity increase for SaSiaT (SaSiaT [1]; compared to Neu5Ac): 31 fold; Metabolic stability in mouse microsomes, Exp. 2 [5]: < 10 µL/min/mg protein; microsomal CLint at 1 µM [5]: < 10 µL/min/mg
